Values after ≈ are worked out from the molar mass of the structure shown.
Columns and labels:
[1] = test system: Human immunodeficiency virus 1; assay: Antiviral activity against HIV1 3B infected in human CEM-SS cells assessed as reduction in cytopathic effect after 4 days; format: functional, organism-based
[2] = Thermodynamic solubility of compound in water at 2 mg after 24 hrs; format: physicochemical; settings: read-out: Therm_solubility
[3] = Selectivity index, ratio of CC50 for human CEM-SS cells to EC50 for Antiviral activity against HIV1 3B infected in human CEM-SS cells; format: toxicity, cell-based; settings: for selectivity ratio: CEM-SS cells, read-out: Ratio CC50/EC50
[4] = Cytotoxicity against human CEM-SS cells assessed as reduction in cell viability by XTT assay; format: cell-based
[5] = Thermodynamic solubility of compound in plON buffer at 2 mg after 24 hrs; format: physicochemical; settings: read-out: Therm_solubility
[6] = Stability in human liver microsomes assessed as parent compound remaining at 1 uM up to 24 hrs by LC-MS/MS analysis; format: ADME, Microsome; settings: read-out: Stabilty
[7] = Drug concentration in Sprague-Dawley rat at 2 mg/kg, iv after 8 hrs by LC-MS/MS analysis; format: ADME, organism-based; settings: in vivo, read-out: Drug uptake
[8] = Drug concentration in Sprague-Dawley rat at 10 mg/kg, po after 24 hrs by LC-MS/MS analysis; format: ADME, organism-based; settings: in vivo, read-out: Drug uptake
[9] = Cmax in Sprague-Dawley rat at 2 mg/kg, iv up to 24 hrs by LC-MS/MS analysis; format: ADME, organism-based; parameters: route intravenous, dose 2 mg/kg, time <=24; settings: in vivo
[10] = Elimination rate constant Sprague-Dawley rat at 2 mg/kg, iv up to 24 hrs by LC-MS/MS analysis; format: ADME, organism-based; settings: in vivo
[11] = AUClast in Sprague-Dawley rat at 2 mg/kg, iv up to 24 hrs by LC-MS/MS analysis; format: ADME, organism-based; parameters: route intravenous, dose 2 mg/kg, time <=24; settings: in vivo
[12] = Drug concentration in Sprague-Dawley rat at 2 mg/kg, iv after 24 hrs by LC-MS/MS analysis; format: ADME, organism-based; settings: in vivo, read-out: Drug uptake
[13] = Half life in Sprague-Dawley rat at 10 mg/kg, po up to 24 hrs by LC-MS/MS analysis; format: ADME, organism-based; settings: in vivo
[14] = AUClast in Sprague-Dawley rat at 10 mg/kg, po up to 24 hrs by LC-MS/MS analysis; format: ADME, organism-based; parameters: route oral, dose 10 mg/kg, time <=24; settings: in vivo
[15] = AUCinfinity in Sprague-Dawley rat at 2 mg/kg, iv up to 24 hrs by LC-MS/MS analysis; format: ADME, organism-based; parameters: route intravenous, dose 2 mg/kg, time <=24; settings: in vivo
[16] = Tmax in Sprague-Dawley rat at 10 mg/kg, po up to 24 hrs by LC-MS/MS analysis; format: ADME, organism-based; settings: in vivo
[17] = MRTlast in Sprague-Dawley rat at 10 mg/kg, po up to 24 hrs by LC-MS/MS analysis; format: ADME, organism-based; settings: in vivo
[18] = AUCinfinity in Sprague-Dawley rat at 10 mg/kg, po up to 24 hrs by LC-MS/MS analysis; format: ADME, organism-based; parameters: route oral, dose 10 mg/kg, time <=24; settings: in vivo
[19] = Protein binding in rat plasma at 1 uM after 4 hrs by LC-MS/MS analysis; format: ADME, cell-free; settings: read-out: PPB (converted)
[20] = Protein binding in human plasma at 1 uM after 4 hrs by LC-MS/MS analysis; format: ADME, cell-free; settings: read-out: PPB
[21] = Oral bioavailability in Sprague-Dawley rat at 10 mg/kg up to 24 hrs by LC-MS/MS analysis; format: ADME, organism-based; settings: in vivo
[22] = Tmax in Sprague-Dawley rat at 2 mg/kg, iv up to 24 hrs by LC-MS/MS analysis; format: ADME, organism-based; settings: in vivo
[23] = Drug concentration in Sprague-Dawley rat at 10 mg/kg, po after 8 hrs by LC-MS/MS analysis; format: ADME, organism-based; settings: in vivo, read-out: Drug uptake
[24] = Elimination rate constant Sprague-Dawley rat at 10 mg/kg, po up to 24 hrs by LC-MS/MS analysis; format: ADME, organism-based; settings: in vivo
[25] = MRTlast in Sprague-Dawley rat at 2 mg/kg, iv up to 24 hrs by LC-MS/MS analysis; format: ADME, organism-based; settings: in vivo
[26] = Cmax in Sprague-Dawley rat at 10 mg/kg, po up to 24 hrs by LC-MS/MS analysis; format: ADME, organism-based; parameters: route oral, dose 10 mg/kg, time <=24; settings: in vivo
[27] = Stability in rat liver microsomes assessed as parent compound remaining at 1 uM up to 24 hrs by LC-MS/MS analysis; format: ADME, Microsome; settings: read-out: Stabilty
[28] = test system: Human immunodeficiency virus 1; assay: Antiviral activity against HIV1 3B; format: functional, organism-based; settings: Human immunodeficiency virus 1, 3B
[29] = test system: Human immunodeficiency virus 1; assay: Antiviral activity against HIV1 3B infected in human CEM-SS cells assessed as reduction in cytopathic effect at 2 nM after 4 days; format: functional; parameters: scale not given: the % may be the effect or the level left; settings: time 4 day
[30] = Human immunodeficiency virus 1, 3B, CEM-SS, 96 h

C[C@H]1CO[C@@H]2Cn3cc(C(=O)NCc4nn(C)c(Cl)c4Cl)c(=O)c(O)c3C(=O)N12
EC50 [1, 30]: 0.59 nM
solubility thermodynamic at 24 h [2]: 318 µg/mL (≈ 719 µM)
selectivity ratio [3]: > 16.9
CC50 [4]: > 10 nM
solubility thermodynamic at 24 h [5]: 318 µg/mL (≈ 719 µM)

C[C@@H]1CCO[C@H]2Cn3cc(C(=O)NCc4ccc(F)nc4F)c(=O)c(O)c3C(=O)N12
EC50 [1, 30]: 5.15 nM
solubility thermodynamic at 24 h [2]: 57 µg/mL (≈ 136 µM)
selectivity ratio [3]: > 1.9
CC50 [4]: > 10 nM
solubility thermodynamic at 24 h [5]: 80 µg/mL (≈ 190 µM)

C[C@H]1CO[C@@H]2Cn3cc(C(=O)NCc4ncc(F)cc4F)c(=O)c(O)c3C(=O)N12
solubility thermodynamic at 24 h [2]: 131 µg/mL (≈ 322 µM)
solubility thermodynamic at 24 h [5]: 196 µg/mL (≈ 482 µM)

C[C@H]1CO[C@@H]2Cn3cc(C(=O)NCc4cccc5cccnc45)c(=O)c(O)c3C(=O)N12
EC50 [1, 30]: 2.17 nM
solubility thermodynamic at 24 h [2]: 10 µg/mL (≈ 23.8 µM)
selectivity ratio [3]: > 4.6
CC50 [4]: > 10 nM
solubility thermodynamic at 24 h [5]: 6 µg/mL (≈ 14.3 µM)

C[C@H]1CO[C@@H]2Cn3cc(C(=O)NCc4ccnc5ccccc45)c(=O)c(O)c3C(=O)N12
solubility thermodynamic at 24 h [2]: 31 µg/mL (≈ 73.7 µM)
solubility thermodynamic at 24 h [5]: 8 µg/mL (≈ 19 µM)

C[C@H]1CO[C@@H]2Cn3cc(C(=O)NCc4c(F)cncc4F)c(=O)c(O)c3C(=O)N12
EC50 [1, 30]: 2.63 nM
solubility thermodynamic at 24 h [2]: 347 µg/mL (≈ 854 µM)
selectivity ratio [3]: > 3.8
CC50 [4]: > 10 nM
solubility thermodynamic at 24 h [5]: 380 µg/mL (≈ 935 µM)

C[C@H]1CO[C@@H]2Cn3cc(C(=O)NCc4cccs4)c(=O)c(O)c3C(=O)N12
EC50 [1, 30]: 1.44 nM
solubility thermodynamic at 24 h [2]: 33 µg/mL (≈ 87.9 µM)
selectivity ratio [3]: > 6.9
CC50 [4]: > 10 nM
solubility thermodynamic at 24 h [5]: 24 µg/mL (≈ 63.9 µM)

C[C@H]1CO[C@@H]2Cn3cc(C(=O)NCc4ccc(F)nc4F)c(=O)c([O-])c3C(=O)N12.[Na+]
EC50 ([1]; cem-ss): 4.8 nM
solubility thermodynamic at 24 h [2]: 2680 µg/mL
Ratio CC50/EC50 [3]: > 2.08
solubility thermodynamic at 24 h [5]: 1680 µg/mL

C[C@H]1CO[C@@H]2Cn3cc(C(=O)NCc4ccc5nonc5c4)c(=O)c(O)c3C(=O)N12
remaining at 24 h, 1 µM [6]: 105%
concentration at 8 h [7]: 24500 ng/mL
EC50 [1, 30]: 0.43 nM
concentration at 24 h [8]: 4440 ng/mL
Cmax [9]: 37200 ng/mL
Kel [10]: 0.03 h⁻¹
solubility thermodynamic at 24 h [2]: 2.85 µg/mL (≈ 6.93 µM)
AUC(0-t) at 24 h [11]: 578 µg·h/mL
concentration at 24 h [12]: 16600 ng/mL
half-life [13]: 35 h
AUC(0-t) at 24 h [14]: 66.9 µg·h/mL
AUC [15]: 1139.52 µg·h/mL
Tmax [16]: 6.67 h
CC50 [4]: > 10 nM
MRT last at 24 h [17]: 11.3 h
solubility thermodynamic at 24 h [5]: 3.2 µg/mL (≈ 7.78 µM)
AUC [18]: 200.296 µg·h/mL
fraction unbound at 4 h, 1 µM [19]: 0.9
fraction unbound at 4 h, 1 µM [20]: 0.001
F [21]: 17.5%
Tmax [22]: 1 h
concentration at 8 h [23]: 3470 ng/mL
k el at 24 h [24]: 5.56e-06 s⁻¹
MRTlast [25]: 9.81 h
Cmax [26]: 3680 ng/mL
remaining at 24 h, 1 µM [27]: 110%

C[C@H]1CO[C@@H]2Cn3cc(C(=O)NCc4ccncc4F)c(=O)c(O)c3C(=O)N12
EC50 [1, 30]: > 10 nM
solubility thermodynamic at 24 h [2]: 78 µg/mL (≈ 201 µM)
CC50 [4]: > 10 nM
solubility thermodynamic at 24 h [5]: 91 µg/mL (≈ 234 µM)

C[C@H]1CO[C@@H]2Cn3cc(C(=O)NCc4cc5c(cc4Br)OCO5)c(=O)c(O)c3C(=O)N12
EC50 [1, 30]: 1.93 nM
solubility thermodynamic at 24 h [2]: 21 µg/mL (≈ 42.7 µM)
selectivity ratio [3]: > 5.2
CC50 [4]: > 10 nM
solubility thermodynamic at 24 h [5]: 21 µg/mL (≈ 42.7 µM)

Cc1cc2c(cc1CNC(=O)c1cn3c(c(O)c1=O)C(=O)N1[C@@H](C)CO[C@@H]1C3)OCCO2
EC50 [1, 30]: > 10 nM
solubility thermodynamic at 24 h [2]: 56 µg/mL (≈ 127 µM)
CC50 [4]: > 10 nM
solubility thermodynamic at 24 h [5]: 70 µg/mL (≈ 159 µM)

O=C(NCc1c(F)cc(F)cc1F)c1cn2c(c(O)c1=O)C(=O)N1[C@H]3CC[C@H](C3)O[C@@H]1C2 [BICTEGRAVIR]
EC50 [28]: 1 nM

C[C@H]1CO[C@@H]2Cn3cc(C(=O)NCc4ccc(F)cc4F)c(=O)c(O)c3C(=O)N12 [CABOTEGRAVIR]
Activity [29]: >50%

C[C@@H]1CCO[C@H]2Cn3cc(C(=O)NCc4ccc(F)cc4F)c(=O)c(O)c3C(=O)N12 [DOLUTEGRAVIR]
EC50 [28]: 1.1 nM
